Values of other authors, collected in article PMC9510668 (Frontiers in Pharmacology, 2022).
Read-outs that look alike come from different tables or passages of the source.

What was measured:
BCRP1 = system: BCRP1; set-up: method as in Minocha et al., 2012; Boudou-Rouquette et al., 2016; details: in vitro; ref Minocha et al., 2012; Boudou-Rouquette et al., 2016; cited from earlier work
CYP3D6 = details: ref Food and Drug Administration, 2009; Yamada et al., 2020; cited from earlier work
[1] = cited from earlier work
[2] = 50 mg OD for 21 consecutive days, Day 1, ref Hurwitz et al., 2009
[3] = 50 mg OD for 21 consecutive days, Day 22, ref Hurwitz et al., 2009
[4] = 100 mg OD for 21 consecutive days, Day 1, ref Hurwitz et al., 2009
[5] = 100 mg OD for 21 consecutive days, Day 22, ref Hurwitz et al., 2009
[6] = 200 mg OD for 21 consecutive days, Day 1, ref Hurwitz et al., 2009
[7] = 200 mg OD for 21 consecutive days, Day 22, ref Hurwitz et al., 2009
[8] = 300 mg twice daily for 21 consecutive days, Day 1, ref Hurwitz et al., 2009
[9] = 300 mg twice daily for 21 consecutive days, Day 22, ref Hurwitz et al., 2009
[10] = 400 mg OD for 21 consecutive days, Day 1, ref Hurwitz et al., 2009
[11] = 400 mg OD for 21 consecutive days, Day 22, ref Hurwitz et al., 2009
[12] = 400 mg oral suspension, ref Heath et al., 2012
[13] = 400 mg tablet, arithmetic mean (range), ref Deng et al., 2013
[14] = 400 mg twice daily for 21 consecutive days, Day 1, ref Hurwitz et al., 2009
[15] = 400 mg twice daily for 21 consecutive days, Day 22, ref Hurwitz et al., 2009
[16] = 400 mg whole tablet, ref Heath et al., 2012
[17] = 600 mg OD for 21 consecutive days, Day 1, ref Hurwitz et al., 2009

Cc1ccc(Nc2nccc(N(C)c3ccc4c(C)n(C)nc4c3)n2)cc1S(N)(=O)=O [PAZ, pazopanib]
Substrate for BCRP1 (BCRP1): moderate substrate
Inhibitor of CYP3D6 (CYP3D6): weak inhibitor
AUC0-24, Observation [1, 2]: 51.8 µg·h/mL
Cmax, Observation [1, 2]: 3.3 µg/mL
Ctrough, Observation [1, 2]: 1500 ng/mL
Tmax, Observation [1, 2]: 3.0 h
AUC504-528, Observation [1, 3]: 157.7 µg·h/mL
Cmax, Observation [1, 3]: 8.4 µg/mL
Ctrough, Observation [1, 3]: 5100 ng/mL
Tmax, Observation [1, 3]: 3.0 h
AUC0-24, Observation [1, 4]: 96.9 µg·h/mL
Cmax, Observation [1, 4]: 6.5 µg/mL
Ctrough, Observation [1, 4]: 2800 ng/mL
Tmax, Observation [1, 4]: 4.0 h
AUC504-528, Observation [1, 5]: 160.7 µg·h/mL
Cmax, Observation [1, 5]: 11.0 µg/mL
Ctrough, Observation [1, 5]: 4900 ng/mL
Tmax, Observation [1, 5]: 8.0 h
AUC0-24, Observation [1, 6]: 104.5 µg·h/mL
Cmax, Observation [1, 6]: 7.5 µg/mL
Ctrough, Observation [1, 6]: 2900 ng/mL
Tmax, Observation [1, 6]: 3.0 h
AUC504-528, Observation [1, 7]: 384.8 µg·h/mL
Cmax, Observation [1, 7]: 23.7 µg/mL
Ctrough, Observation [1, 7]: 12400 ng/mL
Tmax, Observation [1, 7]: 2.0 h
AUC0-24, Observation [1, 8]: 120.1 µg·h/mL
Cmax, Observation [1, 8]: 8.4 µg/mL
Ctrough, Observation [1, 8]: 4100 ng/mL
Tmax, Observation [1, 8]: 4.0 h
Cmax, Observation [1, 9]: 36.7 µg/mL
Ctrough, Observation [1, 9]: 29500 ng/mL
Tmax, Observation [1, 9]: 4.0 h
AUC0-24, Observation [1, 10]: 142.8 µg·h/mL
Cmax, Observation [1, 10]: 10.3 µg/mL
Ctrough, Observation [1, 10]: 3900 ng/mL
Tmax, Observation [1, 10]: 4.0 h
AUC504-528, Observation [1, 11]: 447.1 µg·h/mL
Cmax, Observation [1, 11]: 21.8 µg/mL
Ctrough, Observation [1, 11]: 10400 ng/mL
Tmax, Observation [1, 11]: 3.0 h
AUC0-72, Observation [1, 12]: 471.1 (NC) μg h mL^−1
C24, Observation [1, 12]: 7.8 (NC) μg mL^−1
Cmax, Observation [1, 12]: 12.7 (NC) μg mL^−1
Tmax, Observation [1, 12]: 2.7 (NC) h
AUC0-72, Observation [1, 13]: 335.2 (259–582) μg h mL^−1
Cmax, Observation [1, 13]: 10.8 (7.3–12.5) μg mL^−1
Tmax, Observation [1, 13]: 8.0 (4.0–10.0) h
C24, Observation ([1]; 400 mg tablet, ref Deng et al., 2013): 5.8 (NC) μg mL^−1
AUC0-24, Observation [1, 14]: 365.4 µg·h/mL
Cmax, Observation [1, 14]: 6.5 µg/mL
Ctrough, Observation [1, 14]: 3300 ng/mL
Tmax, Observation [1, 14]: 3.0 h
Cmax, Observation [1, 15]: 36.1 µg/mL
Ctrough, Observation [1, 15]: 28100 ng/mL
Tmax, Observation [1, 15]: 3.1 h
AUC0-72, Observation [1, 16]: 410.3 (NC) μg h mL^−1
C24, Observation [1, 16]: 7.6 (NC) μg mL^−1
Cmax, Observation [1, 16]: 12.4 (NC) μg mL^−1
Tmax, Observation [1, 16]: 3.8 h
AUC0-24, Observation [1, 17]: 157.6 µg·h/mL
Cmax, Observation [1, 17]: 11.2 µg/mL
Ctrough, Observation [1, 17]: 4700 ng/mL
Tmax, Observation [1, 17]: 3.0 h
AUC504-528, Observation ([1]; 600 mg OD for 21 consecutive days, Day 22, ref Hurwitz et al., 2009): 333.7 µg·h/mL
